Measurements reported in PubChem BioAssay AID330 (DTP/NCI, 2004).
“And” between values parts separate entries of the source, which are not always exact repeats. Identical values can stand only once. Inconclusive results and toxic doses are left out. How the source made its calls: active means survival T/C of 150% or more; inactive means T/C below 125% in these data.

Tested on: P388 leukemia ip, CD2F1 mice, survival T/C
Test: NCI In Vivo Anticancer Drug Screen. Data for tumor model P388 Leukemia (intraperitoneal) in CD2F1 (CDF1) mice
Details: endpoint: median survival time, higher = longer survival
Summary of the method: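 Mice carrying the transplanted tumor received test compound or vehicle. Survival was recorded in each group, and the value is the treated-group measurement divided by that of the vehicle-treated control group.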

[1] = dose: 50.0 mg/kg/injection, schedule: Q01DX005 (ip), vehicle: saline
[2] = dose: 60.0 mg/kg/injection, schedule: Q01DX005 (ip), vehicle: saline with Tween-80
[3] = dose: 120.0 mg/kg/injection, schedule: Q01DX005 (ip), vehicle: saline with Tween-80
[4] = dose: 240.0 mg/kg/injection, schedule: Q01DX005 (ip), vehicle: saline with Tween-80
[5] = dose: 12.5 mg/kg/injection, schedule: Q01DX005 (ip), vehicle: Klucel (hydroxypropylcellulose) (HPC)
[6] = dose: 25.0 mg/kg/injection, schedule: Q01DX005 (ip), vehicle: Klucel (hydroxypropylcellulose) (HPC)
[7] = dose: 50.0 mg/kg/injection, schedule: Q01DX005 (ip), vehicle: Klucel (hydroxypropylcellulose) (HPC)
[8] = dose: 100.0 mg/kg/injection, schedule: Q01DX005 (ip), vehicle: Klucel (hydroxypropylcellulose) (HPC)
[9] = dose: 15.0 mg/kg/injection, schedule: Q01DX005 (ip), vehicle: Klucel (hydroxypropylcellulose) (HPC)
[10] = dose: 30.0 mg/kg/injection, schedule: Q01DX005 (ip), vehicle: Klucel (hydroxypropylcellulose) (HPC)
[11] = dose: 60.0 mg/kg/injection, schedule: Q01DX005 (ip), vehicle: Klucel (hydroxypropylcellulose) (HPC)
[12] = dose: 100.0 mg/kg/injection, schedule: Q04DX002 (ip), vehicle: saline with Tween-80
[13] = dose: 200.0 mg/kg/injection, schedule: Q04DX002 (ip), vehicle: saline with Tween-80
[14] = dose: 400.0 mg/kg/injection, schedule: Q04DX002 (ip), vehicle: saline with Tween-80
[15] = dose: 50.0 mg/kg/injection, schedule: Q01DX009 (ip), vehicle: saline
[16] = dose: 100.0 mg/kg/injection, schedule: Q01DX009 (ip), vehicle: saline
[17] = dose: 50.0 mg/kg/injection, schedule: Q01DX009 (ip), vehicle: saline with Tween-80
[18] = dose: 100.0 mg/kg/injection, schedule: Q01DX009 (ip), vehicle: saline with Tween-80
[19] = dose: 200.0 mg/kg/injection, schedule: Q01DX009 (ip), vehicle: saline with Tween-80

Measured: T/C

COc1cccc(Oc2cccc[n+]2CC(C)=O)c1
inactive: dose: 25.0 mg/kg/injection, schedule: Q01DX005 (ip), vehicle: saline 98 % of control | [1] 98 % of control

CCON1C(=O)C(C)c2ccccc21 (stereo unspecified)
inactive: [2] 98 % of control | [3] 102 % of control | [4] 102 % of control

CCN(CC)CCC(=O)c1ccc(OC)c2ccccc12
inactive: [1] 103 % of control | dose: 100.0 mg/kg/injection, schedule: Q01DX005 (ip), vehicle: saline 104 % of control | dose: 200.0 mg/kg/injection, schedule: Q01DX005 (ip), vehicle: saline 103 % of control

COc1ccc(-c2cc(=O)c3cccc(CC(=O)O)c3o2)cc1
active: [8] 170 % of control
inactive: [5] 105 % of control | [6] 104 % of control | [7] 114 % of control and 98 % of control

CSc1nc(N)c(NS(=O)(=O)c2ccc([N+](=O)[O-])cc2)c(=O)[nH]1
inactive: [9] 99 % of control | [10] 87 % of control | [11] 91 % of control and 93 % of control

O=C(O)/C(=C\c1ccccn1)c1ccccc1
inactive: [12] 105 % of control | [13] 105 % of control | [14] 105 % of control

O=C(O)c1ccc(N=Cc2ccc3c(c2)OCO3)cc1
inactive: dose: 25.0 mg/kg/injection, schedule: Q04DX003 (ip), vehicle: saline 100 % of control | dose: 50.0 mg/kg/injection, schedule: Q04DX003 (ip), vehicle: saline 102 % of control | dose: 100.0 mg/kg/injection, schedule: Q04DX003 (ip), vehicle: saline 96 % of control | dose: 200.0 mg/kg/injection, schedule: Q04DX003 (ip), vehicle: saline 94 % of control

COc1ccc2nc3ccccc3c(SCCCCCCSc3c4ccccc4nc4ccc(OC)cc34)c2c1
inactive: [9] 101 % of control | [10] 98 % of control | [11] 100 % of control and 89 % of control and 90 % of control | dose: 240.0 mg/kg/injection, schedule: Q01DX005 (ip), vehicle: Klucel (hydroxypropylcellulose) (HPC) 89 % of control

CC1=CC(C)(O)C=C(C)C1=O
inactive: dose: 3.13 mg/kg/injection, schedule: Q01DX009 (ip), vehicle: water 105 % of control | dose: 6.25 mg/kg/injection, schedule: Q01DX009 (ip), vehicle: water 97 % of control | dose: 12.5 mg/kg/injection, schedule: Q01DX009 (ip), vehicle: water 96 % of control | dose: 25.0 mg/kg/injection, schedule: Q01DX009 (ip), vehicle: water 100 % of control | dose: 50.0 mg/kg/injection, schedule: Q01DX009 (ip), vehicle: water 99 % of control | dose: 100.0 mg/kg/injection, schedule: Q01DX009 (ip), vehicle: water 98 % of control

Cc1ccccc1NC(=O)OCCCl
inactive: [2] 100 % of control | [3] 100 % of control | [4] 97 % of control

CN1CCC(/C=C/c2ccccc2)CN1 (stereo unspecified) (tested in a mixture with another compound)
inactive: [15] 113 % of control | [16] 118 % of control

COC(=O)c1cc(C(=O)OC)c2c3[nH]cnc3ncn2c1=O
inactive: dose: 100.0 mg/kg/injection, schedule: Q04DX003 (ip), vehicle: saline with Tween-80 98 % of control | dose: 200.0 mg/kg/injection, schedule: Q04DX003 (ip), vehicle: saline with Tween-80 100 % of control | dose: 400.0 mg/kg/injection, schedule: Q04DX003 (ip), vehicle: saline with Tween-80 97 % of control

Nc1[nH]cnc(=S)c1N
inactive: [12] 106 % of control | [13] 102 % of control | [14] 106 % of control

CCOC(=O)c1n[nH]c(=S)[nH]c1=O
inactive: [7] 104 % of control | [8] 108 % of control | dose: 200.0 mg/kg/injection, schedule: Q01DX005 (ip), vehicle: Klucel (hydroxypropylcellulose) (HPC) 101 % of control

COc1cc(C2c3cc4c(cc3OC(C)(O)C2C(C)=O)OCO4)cc(OC)c1O (stereo unspecified)
inactive: [2] 95 % of control | [3] 97 % of control | [4] 90 % of control

O=c1ncc2ccc([N+](=O)[O-])cc2[nH]1
inactive: [5] 108 % of control and 95 % of control and 98 % of control | [6] 102 % of control and 94 % of control and 98 % of control | [8] 112 % of control

CC[N+](C)(CC)CCOC(C)=O
inactive: dose: 6.25 mg/kg/injection, schedule: Q01DX001 (ip), vehicle: saline 100 % of control | dose: 12.5 mg/kg/injection, schedule: Q01DX001 (ip), vehicle: saline 100 % of control | dose: 25.0 mg/kg/injection, schedule: Q01DX001 (ip), vehicle: saline with Tween-80 101 % of control | dose: 25.0 mg/kg/injection, schedule: Q01DX001 (ip), vehicle: saline 98 % of control

N#Cc1c(C(=O)NN)c2c(-c3ccc4ccccc4c3)n[nH]c(=O)c2[nH]c1=O
inactive: dose: 50.0 mg/kg/injection, schedule: Q01DX005 (ip), vehicle: saline with Tween-80 91 % of control | dose: 100.0 mg/kg/injection, schedule: Q01DX005 (ip), vehicle: saline with Tween-80 95 % of control | dose: 200.0 mg/kg/injection, schedule: Q01DX005 (ip), vehicle: saline with Tween-80 86 % of control

CC(SCc1ccccc1)C(N)C(=O)O (stereo unspecified)
inactive: [17] 100 % of control | [18] 103 % of control | [19] 91 % of control

O=C1c2cc3c(cc2C(=O)c2cc(-c4ccccc4)c(-c4ccccc4)cc21)OCO3
inactive: [2] 92 % of control | [3] 100 % of control | [4] 98 % of control and 102 % of control

Nc1nc(-c2ccccc2)c(-c2ccccc2)n1C(=O)NCCCl
inactive: dose: 12.5 mg/kg/injection, schedule: Q04DX002 (ip), vehicle: saline with Tween-80 114 % of control | dose: 25.0 mg/kg/injection, schedule: Q04DX002 (ip), vehicle: saline with Tween-80 113 % of control | dose: 50.0 mg/kg/injection, schedule: Q04DX002 (ip), vehicle: saline with Tween-80 113 % of control

CC(=O)c1ccc(Cl)c(N=Cc2cc(Cl)cc(Cl)c2O)c1
inactive: dose: 50.0 mg/kg/injection, schedule: Q01DX009 (ip), vehicle: Klucel (hydroxypropylcellulose) (HPC) 91 % of control | dose: 100.0 mg/kg/injection, schedule: Q01DX009 (ip), vehicle: Klucel (hydroxypropylcellulose) (HPC) 93 % of control | dose: 200.0 mg/kg/injection, schedule: Q01DX009 (ip), vehicle: Klucel (hydroxypropylcellulose) (HPC) 98 % of control

CC(O)CCOC(C[N+](=O)[O-])C(Cl)(Cl)Cl (stereo unspecified)
inactive: [17] 101 % of control and 104 % of control | [18] 117 % of control | [19] 102 % of control and 120 % of control

Cc1ccc(S(=O)(=O)N/N=C/c2ccc(O)c(O)c2)cc1
inactive: dose: 12.5 mg/kg/injection, schedule: Q01DX009 (ip), vehicle: other 112 % of control | dose: 25.0 mg/kg/injection, schedule: Q01DX009 (ip), vehicle: other 112 % of control | dose: 50.0 mg/kg/injection, schedule: Q01DX009 (ip), vehicle: other 112 % of control | dose: 100.0 mg/kg/injection, schedule: Q01DX009 (ip), vehicle: other 111 % of control and 120 % of control | dose: 200.0 mg/kg/injection, schedule: Q01DX009 (ip), vehicle: other 112 % of control and 121 % of control | dose: 400.0 mg/kg/injection, schedule: Q01DX009 (ip), vehicle: other 122 % of control

O=P(c1ccccc1)(c1ccccc1)c1ccccc1.O=P(c1ccccc1)(c1ccccc1)c1ccccc1.O=P(c1ccccc1)(c1ccccc1)c1ccccc1.O=P(c1ccccc1)(c1ccccc1)c1ccccc1.[Ce+3].[O-][Cl+3]([O-])([O-])O
inactive: dose: 50.0 mg/kg/injection, schedule: Q01DX009 (ip), vehicle: saline + Tween-80 + alcohol 96 % of control | dose: 100.0 mg/kg/injection, schedule: Q01DX009 (ip), vehicle: saline + Tween-80 + alcohol 89 % of control | dose: 200.0 mg/kg/injection, schedule: Q01DX009 (ip), vehicle: saline + Tween-80 + alcohol 87 % of control

CCOC(=O)C(=O)Cc1ccc(C(=N)N)cc1
inactive: [15] 101 % of control | [16] 96 % of control | dose: 200.0 mg/kg/injection, schedule: Q01DX009 (ip), vehicle: saline 88 % of control
